“Also recorded” adds a separate entry of the source.
Experiments:
[1] = test system: organ of Corti explants (hair cells / supporting cells); experiment: Cochlear explant culture with Pa2g4/EBP1 inhibitors: MYO7+ / Atoh1-nGFP cell generation; type: cell-based, mouse; conditions: for Increase in number of MYO7+ cells in the apex / Atoh1-nGFP-positive cells near OHCs: Atoh1-nGFP mouse cochlear explants; for Increase in number of MYO7+ cells in the apex: WS3 or WS6 treatment; for Atoh1-nGFP-positive cells near OHCs: gradient from apex to base; for MYO7+ cell counts at the apex region versus controls: P1-P2 mouse organ of Corti explants, 48-72 hours, WS3 0.01 μM or WS6 0.5 μM vs DMSO, mean per 100 μm, WS6 p=0.0043, WS3 p=0.0060; for Concentration at which effects were observed in culture: application in culture
Protocol: (§1) Cochleae were isolated from postnatal day 1-day 2 wild type or Atoh1-nGFP mice (Lumpkin, Collisson et al. 2003). The organ of Corti was isolated from the otic capsule, and the nerve tissue and stria vascularis were removed. The organ of Corti was plated on a glass coverslip coated with a 1:10 mixture of Matrigel and DMEM/F12 to promote attachment. Cochlear explants were cultured in a serum-free 1:1 mixture of DMEM and F12, supplemented with Glutamax, N2, and B27. For the treated cochlea, small molecules were added to this culture medium, while the control cochlea was cultured with medium containing DMSO at the same concentration used in the treatments. To measure proliferation, explants were treated with EdU (10 μg/ml) along with the drug or DMSO. Drug-treated explants were cultured for 3 days then fixed in 4% PFA for 30 min.
To quantify WS3 and WS6-treated cochleae, the length of the sensory epithelium was measured using ImageJ software with the overall length determined from the hook to the apex in each sample. The number of myosin VIIa-positive cells or Edu positive cells in the supporting cell region were manually counted. The total number of cells was counted in each of four cochlear segments of 1200-1400 μm (apical, mid-apical, mid-basal, and basal), density (cells per 100 μm) was then calculated for each segment. Statistical analyses were performed using Prism version 7.0 software; comparisons among groups were made by one-way ANOVA followed by Dunnett's multiple-comparisons test for comparing the mean of each group with the mean of a control group.
Our findings with the conditional ErbB2 activation animal models have shown that the constitutive activation of ERBB2 can result in SC expansion and ectopic MYO7+ cell generation. To further validate the crucial role of ERBB2 activation, inventors turned to small molecules to pharmacologically activate the ErbB pathway and determine their effect on SC expansion and HC differentiation. Two compounds, WS3 and WS6, were chosen, as these two analogues promoted cell proliferation in growth arrested cells such as […] and retinal pigment epithelial (RPE) cells (Shen, Tremblay et al. 2013, Swoboda, Elliott et al. 2013). […] To test the effect of these drugs on SCs, they were applied to cochlear explants derived from Atoh1-nGFP reporter mice (Lumpkin, Collisson et al. 2003). […] The number of MYO7+ cells in the apex was increased by 20 cells/100 μm (FIGS. 7A and 7B).

[2] = test system: supporting cells in organ of Corti explants; experiment: Cochlear explant culture with Pa2g4/EBP1 inhibitors: EdU supporting cell proliferation; type: cell-based; conditions: P1-P2 wild type mouse explants, 48-72 hours, WS3 0.01 μM or WS6 0.5 μM vs DMSO, gradient from apex to base
Protocol: as §1
To quantify WS3 and WS6-treated cochleae, the length of the sensory epithelium was measured using ImageJ software with the overall length determined from the hook to the apex in each sample. The number of myosin VIIa-positive cells or Edu positive cells in the supporting cell region were manually counted. The total number of cells was counted in each of four cochlear segments of 1200-1400 μm (apical, mid-apical, mid-basal, and basal), density (cells per 100 μm) was then calculated for each segment. […]

p-ERBB2 in MCF-7 cells = experiment: Western blot of ERBB2 pathway activation with anti-p-ERBB2 antibody (Y1248); type: cell-based; conditions: MCF-7 breast cancer cells, treated for 15 minutes
Protocol: FIGS. 8A, 8A′. […] FIG. 8A. Images of the apex region of the P1-P2 organ of Corti cultured for 48-72 hours in the presence of DMSO, WS3 (0.01 μM), or WS6 (0.5 μM). MYO7a (green), SOX2 (red) and EdU (blue) are shown. IHC, inner hair cells; OHC, outer hair cells (FIG. 8A′) Cross section of organ of Corti from FIG. 8A at the yellow line. Scale bar: 25 microns. FIG. 8B. […] FIG. 8C. Western blot analysis of ERBB2 pathway activation was conducted using anti-p-ERBB2 antibody (Y1248) in MCF-7 cells. Cells were treated with WS3 or WS6 for 15 minutes.
To determine if the drug treatments promoted SC proliferation, the compound were applied to cochlear explants from wild type mice at P1-P2 with EdU present to label the proliferating cells. […] To confirm that the effect of the drugs was mediated through ERBB2 activation, the ERBB2 phosphorylation was analyzed using the protein lysates from cochlear explant.

rodent diabetes model = conditions: by promoting cell proliferation, Shen, Tremblay et al. 2013; cited from earlier work
[3] = test system: retinal pigment epithelium (RPE) cells; conditions: Swoboda, Elliott et al. 2013; cited from earlier work

Compound	Increase in number of MYO7+ cells in the apex [1]	Atoh1-nGFP-positive cells near OHCs [1]	MYO7+ cell counts at the apex region versus controls [1]	Concentration at which effects were observed in culture [1]	EdU+ cells in the SOX2+ supporting cell region [2]	p-ERBB2 level (p-ERBB2 in MCF-7 cells)	β-cell mass (rodent diabetes model)	Expansion of retinal pigment epithelium (RPE) cells [3]
CN1CCN(Cc2ccc(NC(=O)Cc3ccc(Oc4cc(NC(=O)C5CC5)ncn4)cc3)cc2C(F)(F)F)CC1 [WS6]	20 cells/100 μm	additional Atoh1-nGFP-positive cells near OHCs were seen	Significantly more MYO7+ cells	500 nM	A large number of EdU+ cells were observed; also recorded: significantly more SCs	elevated	increases p3-cell mass	–
CN1CCN(Cc2ccc(NC(=O)Nc3ccc(Oc4cc(NC(=O)C5CC5)ncn4)cc3)cc2C(F)(F)F)CC1 [WS3]	20 cells/100 μm	additional Atoh1-nGFP-positive cells near OHCs were seen	Significantly more MYO7+ cells	10 nM	A large number of EdU+ cells were observed; also recorded: significantly more SCs	elevated	–	expands retinal pigment epithelium (RPE) cells

Reference: patent US20200093824A1, “ERBB3 Activators in Hearing Restoration” (University of Rochester, priority 2018, published 2020)
